# Assays:
# [1] = test system: bovine aortic endothelial cells (BAEC); assay: MTT assay, toxicity in normal cells BAEC; type: cell-based; conditions: 10 μM; BAECs
# Protocol: (§1) Cell lines: Two normal cell lines were used herein. The first normal cell line was a rat-derived embryonic cardiomyocyte cell line, H9c2, from […] (Manassas, Va.; Catalog No. CRL-1446). The second normal cell line was BAECs from Clonetics Corp. (San Diego, Calif.).
# (§2) In a first set of experiments, a dose-response curve to MitoQ was measured in each of the six cell lines described above. Briefly, cells were treated with various concentrations of MitoQ for twenty-four hours. Following treatment, cellular toxicity was measured by a MTT assay as described below.
# (§3) In a third set of experiments, each of the six cell lines described above were subjected to the following treatments: (1) 10 μM MitoQ; (2) 10 μM CoQ (MitoQ without the phosphonium, which served as a control); and (3) 10 μM triphenylphosphonium (TPP; MitoQ without the ubiquinone or the ubquinol moiety, which also served as a control). Following treatment, cellular toxicity was measured by the MTT assay.
# (§4) MTT Assay: An MIT assay was performed to examine MitoQ's toxicity on normal cells and tumor cells (see Mosmann T, “Rapid colorimetric assay for cellular growth and survival: Application to proliferation and cytotoxicity assays,” J. Immunol. Meth. 65:55-63 (1983)). […] Formazon crystals formed cells were solubilized by adding 200 μl of 0.1N HCl in isopropanol, and absorbance was measured at 570 nm.
# [2] = test system: tumor cell lines (LnCAP, MCF-7, SH-SY5Y and MDA-MB-231); assay: MTT assay, toxicity in tumor cell lines; type: cell-based, human; conditions: 10 μM, MCF-7 and SH-SY5Y
# Text: In contrast, four tumor cell lines were used herein. The first tumor cell line was a human neuroblastoma cell line, SH-SY5Y, from American Type Culture Collection (ATCC; Rockville, Md.). The second tumor cell line was a human prostate cancer cell line, LnCAP, from ATCC. The third tumor cell line was a human breast cancer cell line, MCF-7, from ATCC. The fourth tumor cell line was a human metastatic breast cancer cell line, MDA-MB-231 from ATCC.
# as §2
# as §3, with “assay. […]” for “assay.”
# H9c2 cells = assay: MTT assay, toxicity in normal cells H9c2; type: cell-based, rat; conditions: 10 μM
# Protocol: as §1, §2, §3, §4
# laboratory animals = conditions: in vivo; cited from earlier work
# [3] = test system: isolated cardiomyocytes and isolated hearts; conditions: cited from earlier work
# male Sprague Dawley rats = assay: Echocardiography in DOX-treated rats (cardiac function test); type: in vivo, rat
# Protocol: (§5) In a first set of experiments, male Sprague Dawley rats were divided into the following four treatment groups: (1) PBS control; (2) MitoQ (5 mg/kg, i.p., twice per week); (3) DOX (2.5 mg/kg, i.v.); and (4) DOX plus MitoQ (2.5 mg/kg DOX and 5 mg/kg MitoQ, both i.p.). All agents were administered in PBS for ten weeks. At weeks four, eight, ten and twelve, cardiac function tests were performed. Following the treatments, the rats were sacrificed and hearts were removed for histochemical and biochemical analysis. See FIG. 8 for treatment protocol
# In a second set of experiments, a different mitochondria-target antioxidant was assessed, Mito-TEMPOL. Male Sprague Dawley rats were divided into the following four treatment groups: (1) PBS control; (2) Mito-TEMPOL (5 mg/kg, i.p., twice per week); (3) DOX (2.5 mg/kg, i.v.); and (4) DOX plus Mito-TEMPOL (2.5 mg/kg and 5 mg/kg Mito-TEMPOL, both i.p.). All agents were administered in PBS for ten weeks. At weeks four, eight, ten and twelve, cardiac function tests were performed. Following treatment, the rats were sacrificed and hearts were removed for histochemical and biochemical analysis.
# Cardiac Function Test: Echocardiography was performed at baseline, four, eight, ten and twelve weeks following the start of treatment. Rats were anesthetized with a mixture of ketamine (75 mg/kg) and medotomidine (0.25 mg/kg). Once anesthetized, the chest was shaved and cardiac rhythm monitored using three limb leads attached to a Vivid 7 from General Electric (Waukesha, Wis.) and a M12L linear array probe.
# 2-D B mode imaging parameters were as follows: (1) depth, 2.5 cm.; (2) frame rate, 230 frames/second; and (3) second harmonic imaging. For the primary endpoint data, the standard short axis view at the mid-ventricular level were used. Because of the serial nature of comparative measurements, co-registration at this level was ensured by the use of papillary muscles as localizers and obtaining a circular left ventricular slice. Other standard views obtained induced short axis apical slices and short axis basal slices at the mitral valve. […] In addition, Q analysis software (General Electric) of the B mode echo images was used to measure regional radial and circumferential strain. Furthermore, diastolic function was monitored by using pulsed Doppler of the mitral inflow and aortic outflow regions in a standard apical four chamber/five chamber view, as was mitral E wave, A wave, isovolumic relaxation time and mitral E deceleration time.
# caspase-3 = assay: Caspase-3 activity in heart tissues of DOX-treated rats; type: in vivo, rat; conditions: DOX treatment
# Protocol: Caspase-3 Activity: Caspase-3 activity was measured with acetyl Asp-Glu-Val-Asp 7-amido-4-methlylcoumarin (Ac-DEVD-AFC), as described in a kit from Sigma Aldrich (St. Louis, Mo.). Caspase-3 hydrolyzes Ac-DEVD-AFC to release a fluorescent moiety, 7-amino-4-methylcoumarin (AMC). Briefly, treated cells were suspended in 100 μl of lysis buffer and passed through a 24-gauge needle 10 times to ensure complete lysis. The resulting lysate was centrifuged at 4° C. at 10,000 rmp. 50 μl of clear supernatant was used for the activity assay. […] The excitation and emission wavelengths of AMC are 360 nm and 460 nm respectively.
# as §5
# Caspase-3 was determined as described above in Example 3.
compound,measurement,setting,value
"triphenylphosphonium [TPP, reference compound]","toxicity (MTT), FIG. 4",[1],not toxic
same,"toxicity (MTT), FIG. 4",[2],not toxic
same,"toxicity (MTT), FIG. 4",H9c2 cells,not toxic
coenzyme Q [CoQ],efficacy against DOX cardiotoxicity in animals,laboratory animals,not as effective
same,effect on DOX-induced toxicity,[3],reversed DOX-induced toxicity
same,"toxicity (MTT), FIG. 4",[2],not toxic
same,"DOX-induced cardiomyopathy (echocardiograms, FIG. 9A)",male Sprague Dawley rats; after 12 weeks of DOX treatment,not
same,protection of left ventricular function and fractional shortening against DOX cardiotoxicity,"male Sprague Dawley rats; co-administered with DOX, echocardiography",did not significantly protect
CC(=O)N[C@@H](CS)C(=O)O [N-acetylcysteine],efficacy against DOX cardiotoxicity in animals,laboratory animals,limited efficacy
"COc1cccc2c1C(=O)c1c(O)c3c(c(O)c1C2=O)C[C@@](O)(C(=O)CO)C[C@@H]3O[C@H]1C[C@H](N)[C@H](O)[C@H](C)O1 [DOX, doxorubicin]",decrease of fractional shortening versus control,"male Sprague Dawley rats; DOX 2.5 mg/kg, rats",18%
same,decrease of radial strain versus control,"male Sprague Dawley rats; DOX 2.5 mg/kg, rats",35%
same,caspase activity in heart tissues,caspase-3,increased with increasing DOX treatment
Cc1c(C)c2c(c(C)c1O)CC[C@@](C)(CCC[C@H](C)CCC[C@H](C)CCCC(C)C)O2 [α-tocopherol],efficacy against DOX cardiotoxicity in animals,laboratory animals,limited efficacy

# Source: patent publication US20080032940A1, “METHODS FOR REDUCING ANTHRACYCLINE-INDUCED TOXICITY” (priority 2006, published 2008)
